Source: patent publication US20070191426A1, “Derivatives of 3-aminocarbonylquinoline, pharmaceutical compositions containing them and processes and intermediates for their preparation” (priority 2003, published 2007)

Tests used:
[1] = biological target: PDE5 (human recombinant) (Homo sapiens, UniProt O76074); assay: Inhibition of PDE5 activity: radioactive Scintillation Proximity Assay (SPA); assay type: biochemical; conditions: SPA assay (all Examples); read-out: PDE5 mean pIC50 (converted)
Text: Human recombinant PDE5 is disclosed in K. Loughney et al., “Isolation and characterization of cDNAs encoding PDE5A, a human cGMP-binding, cGMP-specific 3′,5′-cyclic nucleotide phosphodiesterase”, Gene, 1998, 216, 139-147.
(§1) Inhibition of PDE3, PDE4B, PDE4D, PDE5 or PDE6 Activity: Radioactive Scintillation Proximity Assay (SPA)
(§2) The ability of compounds to inhibit catalytic activity at PDE4B or 4D (human recombinant), PDE3 (from bovine aorta) PDE5 (human recombinant) or PDE 6 (from bovine retina) was may be determined by Scintillation Proximity Assay (SPA) in 96-well format. Test compounds (preferably as a solution in DMSO, e.g. 2 microlitre (μl) volume) were preincubated at ambient temperature in Wallac Isoplates (code 1450-514) with PDE enzyme in 50 mM Tris-HCl buffer pH 7.5, 8.3 mM MgCl2, 1.7 mM EGTA, 0.05% (w/v) bovine serum albumin for 10-30 minutes. The enzyme concentration was adjusted so that control rates are linear over the assay incubation period. For the PDE3, PDE4B and PDE4D assays […] 3′,5′-cyclic phosphate (Amersham Pharmacia Biotech, code TRK.559 or Amersham Biosciences UK Ltd, Pollards Wood, Chalfont St Giles, Buckinghamshire HP8 4SP, UK) was added to give 0.05 μCi per well and ˜10 nM final concentration. For the PDE5 and PDE6 assays [8-^3H]guanosine 3′,5′-cyclic phosphate (Amersham Pharmacia Biotech , code TRK.392) was added to give 0.05 μCi per well and ˜36 nM final concentration. Plates e.g. containing approx. 100 μl volume of assay mixture were mixed on an orbital shaker for 5 minutes and incubated at ambient temperature for 1 hour. Phosphodiesterase SPA beads (Amersham Pharmacia Biotech, code RPNQ 0150) were added (˜1 mg per well) to terminate the assay. Plates were sealed and shaken and allowed to stand at ambient temperature for 35 minutes to 1 hour to allow the beads to settle. Bound radioactive product was measured using a WALLAC TRILUX 1450 MicroBeta scintillation counter. […] Curves were analyzed using ActivityBase and XLfit (ID Business Solutions Limited, 2 Ocean Court, Surrey Research Park, Guildford, Surrey GU2 7QB, United Kindgom). Results were expressed as pIC50 values.

[2] = biological target: T1, PDE4B (human recombinant) (Homo sapiens, UniProt Q07343); assay: Inhibition of PDE4B activity: radioactive Scintillation Proximity Assay (SPA); assay type: biochemical; conditions: SPA assay (Examples 1 to 6); read-out: PDE4B mean pIC50 (converted)
T1 construct: made in house
Text: Human recombinant PDE4B, in particular the 2B splice variant thereof (HSPDE4B2B), is disclosed in WO 94/20079 and also in M. M. McLaughlin et al., “A low Km, rolipram-sensitive, cAMP-specific phosphodiesterase from human brain: cloning and expression of cDNA, biochemical characterization of recombinant protein, and tissue distribution of mRNA”, J. Biol. Chem., 1993, 268, 6470-6476. For example, in Example 1 of WO 94/20079, human recombinant PDE4B is described as being expressed in the PDE-deficient yeast Saccharomyces cerevisiae strain GL62, e.g. after induction by addition of 150 uM CuSO4, and 100,000×g supernatant fractions of yeast cell lysates are described for use in the harvesting of PDE4B enzyme.
as §1, §2

T1 sequence (Q07343 1-564 isoform Q07343-2): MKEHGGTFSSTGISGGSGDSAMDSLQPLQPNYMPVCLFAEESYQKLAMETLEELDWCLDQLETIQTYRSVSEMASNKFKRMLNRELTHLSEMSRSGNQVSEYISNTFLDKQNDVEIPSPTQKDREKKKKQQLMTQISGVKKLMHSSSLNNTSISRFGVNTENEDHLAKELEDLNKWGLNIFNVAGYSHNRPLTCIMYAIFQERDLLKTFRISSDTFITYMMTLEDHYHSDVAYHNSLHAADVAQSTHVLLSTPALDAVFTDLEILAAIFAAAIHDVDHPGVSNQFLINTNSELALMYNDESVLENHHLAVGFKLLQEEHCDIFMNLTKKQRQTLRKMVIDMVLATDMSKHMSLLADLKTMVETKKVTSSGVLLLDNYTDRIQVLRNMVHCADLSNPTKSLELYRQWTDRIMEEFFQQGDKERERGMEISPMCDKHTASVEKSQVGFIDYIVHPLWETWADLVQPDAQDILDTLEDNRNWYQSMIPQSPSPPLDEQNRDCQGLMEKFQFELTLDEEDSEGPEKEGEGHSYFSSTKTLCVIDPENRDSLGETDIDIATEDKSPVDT

Row | IC50 [1] [µM] | IC50 [2] [µM] | Structure (SMILES)
1 | > 31.6 | 0.01 | COc1cccc(Nc2c(C(N)=O)cnc3ccc(C(=O)N4CCOCC4)cc23)c1 [Example 1, 4-{[3-(Methyloxy)phenyl]amino}-6-(4-morpholinylcarbonyl)-3-quinolinecarboxamide]
2 | > 31.6 | 0.0251 | COc1cccc(Nc2c(C(N)=O)cnc3ccc(C(=O)Nc4ccccc4)cc23)c1 [Example 2, 4-{[3-(methyloxy)phenyl]amino}-N^6-phenyl-3,6-quinolinedicarboxamide]
3 | > 31.6 | 0.0398 | COc1cccc(Nc2c(C(N)=O)cnc3ccc(C(=O)NC(C)(C)C)cc23)c1 [Example 3]
4 | > 31.6 | 0.501 | CNC(=O)c1ccc2ncc(C(N)=O)c(Nc3cccc(OC)c3)c2c1 [Example 6]
